Experimental data from ChEMBL document CHEMBL3430912, “GSK Tres Cantos Anti-Kinetoplastid Screening (TCAKS) Data”.

Legend:
[1] = tested on: Trypanosoma cruzi; test: GSK_TCAKS: pIC50 Trypanosoma cruzi viability assay using beta-GAL activity. This assay was run at single shot at 5uM compound concentration per well. The biological reagents consisted of NIH-3T3 host cells and trypomastigotes parasitic cells; both cell types were set to a 3.3 * 10^5 cells/mL dilution in assay DMEM by means of a CASY cell counter device using a 60um capillary. 6 uL of the mixture were dispensed per well (about 1 * 10^3 host-cells and 1 * 10^3 parasites) with a Multidrop Combi dispenser. […] In all wells, the percentage of DMSO never exceeded 0.5%. Plates incubated for four days at 37C, 5% CO2. The substrate used for the assay fluorescence intensity (FLINT) readout was resorufin-beta-D-galactopiranoside (Sigma-Aldrich) at 5uM per well. It was diluted in PBS supplemented with the soft detergent Igepal (Fluka).; assay type: functional, organism-based, Mus musculus; settings: Tulahuen, NIH3T3
[2] = tested on: Trypanosoma cruzi; test: (§1) GSK_TCAKS: pIC50 Trypanosoma cruzi Imaging: Infected Cells. […] Cells were then washed once with PBS before infection. T. cruzi trypomastigotes, collected at days 5 to 8 after infection from LLC-MK2 parasite infected cultures, were allowed to swim out for 4h at 37C from a centrifuged pellet (2,500 rpm/10 min/room temperature). Trypomastigotes were then collected and counted in a CASY Cell Counter. Trypomastigotes, in supplemented DMEM, were added to H9c2 cultures in a multiplicity of infection of 1 and incubated for 18 h. Cells were washed once with PBS before incubation of the infected H9c2 monolayer with trypsin (Life-Technologies) to detach cells from the flask. Cells were counted in a CASY Cell Counter using a 150 um capillary and their density set at 5 * 10^4 cells per mL in supplemented assay DMEM. Infected H9c2 were dispensed into 384-well poly-lysine coated assay plates at 50uL per well using a Multidrop Combi dispenser. After seeding them, the plates were incubated at 37C, 5% CO2 for 72h. Cultures were then fixed and stained by addition of 50 uL of a solution containing 8% formaldehyde and 4 uM DRAQ5 DNA dye (BioStatus, UK) per well. […] Five images were collected per well for reliable statistical analysis. Automated image analysis was performed with a script developed on Acapella High Content Imaging and Analysis Software (PerkinElmer). Output: percentage of infected cells per well as a second infection marker.; assay type: functional, organism-based, Rattus norvegicus; settings: H9c2, 4 h
[3] = tested on: Trypanosoma cruzi; test: GSK_TCAKS: pIC50 Trypanosoma cruzi Imaging: Amastigotes/Cell. […] Cells were then washed once with PBS before infection. T. cruzi trypomastigotes, collected at days 5 to 8 after infection from LLC-MK2 parasite infected cultures, were allowed to swim out for 4h at 37C from a centrifuged pellet (2,500 rpm/10 min/room temperature). Trypomastigotes were then collected and counted in a CASY Cell Counter. Trypomastigotes, in supplemented DMEM, were added to H9c2 cultures in a multiplicity of infection of 1 and incubated for 18 h. Cells were washed once with PBS before incubation of the infected H9c2 monolayer with trypsin (Life-Technologies) to detach cells from the flask. Cells were counted in a CASY Cell Counter using a 150 um capillary and their density set at 5 * 10^4 cells per mL in supplemented assay DMEM. Infected H9c2 were dispensed into 384-well poly-lysine coated assay plates at 50uL per well using a Multidrop Combi dispenser. After seeding them, the plates were incubated at 37C, 5% CO2 for 72h. Cultures were then fixed and stained by addition of 50 uL of a solution containing 8% formaldehyde and 4 uM DRAQ5 DNA dye (BioStatus, UK) per well. […] Five images were collected per well for reliable statistical analysis. Automated image analysis was performed with a script developed on Acapella High Content Imaging and Analysis Software (PerkinElmer). Output: number of amastigotes per cell as infection level measurement.; assay type: functional, organism-based, Rattus norvegicus; settings: H9c2, 4 h
[4] = tested on: Trypanosoma cruzi; test: as §1, with “H2C9” for “Trypanosoma cruzi”, “H9c2 Host Cardiomyocytes.” for “Infected Cells.”, “Number” for “percentage”, “H9c2 Host Cardiomyocytes nuclei to determine drug-related cytotoxicity.” for “infected cells per well as a second infection marker.”; assay type: functional, organism-based, Rattus norvegicus; settings: H9c2, 4 h
[5] = tested on: Leishmania donovani; test: GSK_TCAKS: pIC50 Leishmania donovani viability assay using fluorescence intensity. Assay plates (1536-well) were prepared by adding 30nL per well of compound. For single shot assay, the final compound concentration was 5uM. […] Briefly, eGFP LdBOB axenic amastigotes were harvested, fixed and counted in a CASY cell counter (Roche-Applied Science). A final concentration of 1.5 * 10^5 cells per well were prepared in amastigote media containing 500 U/mL penicillin/streptomycin (Invitrogen) and 6uL was dispensed to each experimental well using a Multidrop Combi dispenser (Thermo Scientific). 6uL of assay media was dispensed to control columns used as reference for 100% compound response. Following incubation for 72 h at 37C, 5% CO2, 2 uL of resazurin was added to each well at a final concentration of 0.5 mM in phosphate buffered saline (PBS) with IGEPAL (Sigma-Aldrich), 0.05% (v/v).; assay type: functional, organism-based
[6] = tested on: Leishmania donovani; test: GSK_TCAKS: pIC50 Leishmania donovani Imaging: Infected Macrophages. Assay plates (384-well) were prepared by adding 250nL of compound to each well. For single shot assay, the final compound concentration was 5 uM. […] Automated image analysis was performed with a script developed on Acapella High Content Imaging and Analysis Software (PerkinElmer). Output: Percent of infected macrophage cells were reported for each well.; assay type: functional, organism-based, Homo sapiens; settings: THP-1
[7] = tested on: Leishmania donovani; test: GSK_TCAKS: pIC50 Leishmania donovani Imaging: Amastigotes/Macrophages. Assay plates (384-well) were prepared by adding 250nL of compound to each well. For single shot assay, the final compound concentration was 5 uM. […] Automated image analysis was performed with a script developed on Acapella High Content Imaging and Analysis Software (PerkinElmer). Output: Average number of amastigotes per macrophage cell were reported for each well.; assay type: functional, organism-based, Homo sapiens; settings: THP-1
[8] = tested on: Leishmania donovani; test: GSK_TCAKS: pIC50 Leishmania donovani Imaging: THP-1 Host Macrophages. Assay plates (384-well) were prepared by adding 250nL of compound to each well. For single shot assay, the final compound concentration was 5 uM. […] Automated image analysis was performed with a script developed on Acapella High Content Imaging and Analysis Software (PerkinElmer). Output: THP-1 cell count were reported for each well.; assay type: functional, organism-based, Homo sapiens
[9] = tested on: Trypanosoma brucei brucei; test: GSK_TCAKS: pIC50 Trypanosoma brucei viability assay using fluorescence intensity. Assay plates (1536-well) were prepared by dispensing 25nL of compound solution per well using an Echo acoustic dispenser (Labcyte).; assay type: functional, organism-based; settings: Lister 427, 2 h
[10] = tested on: Trypanosoma brucei brucei; test: GSK_TCAKS: pIC50 Trypanosoma brucei viability assay using luminiscence. Assay plates (1536-well) were prepared. T. brucei cultures were harvested and counted in a CASY cell counter. A parasite suspension was prepared at a final concentration of 5 * 10^4 cells/mL in complete HMI9 medium and 6uL was dispensed to all wells containing compounds using a Multidrop Combi dispenser. 6uL of HMI9 media with 0.4% DMSO were dispensed to control columns. Plates were incubated for 24 h at 37C, 5% CO2 then tempered for 10 min at room temperature. ATP content was quantified by adding 4 uL of CellTiter-Glo Reagent (Promega) according to the manufacturer's instructions. Luminescence was measured using a ViewLux.; assay type: functional, organism-based; settings: Lister 427, CASY
[11] = GSK_TCAKS: pIC50 HepG2 human cell line viability assay using luminiscence. […] Seeding density was checked to ensure that new mono-layers were not more than 50% confluent at the time of harvesting. Cell suspension was added to 500 mL of the same medium at a final density of 1.2 * 10^5 cells/mL. This cell suspension was dispensed (25 uL, 3000 cells per well) into 384-well clear-bottom plates using a Multidrop Combi dispenser. Prior to addition of the cell suspension, the screening compounds (250 nL) were pre-dispensed into the plates with an Echo liquid handler. Plates were incubated for 48 h at 37C, 5% CO2. After incubation, plates equilibrated at room temperature for 30 min before proceeding to develop the luminescent signal. The signal developer, CellTiter-Glo Reagent, was allowed to equilibrate at room temperature for 30 min and added to the plates (25uL per well) using a Multidrop Combi dispenser. Plates were left for 10 min at room temperature for stabilization and then read using a ViewLux.; assay type: toxicity, cell-based
[12] = tested on: NIH3T3; test: GSK_TCAKS: pIC50 NIH 3T3 cell line viability assay using luminiscence. Tissue culture surface treated assay plates (1536-well) were used. […] The 100% cells survival control was determined exposing the host-cells to a 0.5% DMSO concentration, whereas the 100% toxicity control was achieved by seeding the cells in presence of Amphotericin B at 50uM. Plates were incubated for four days at 37C, 5% CO2. The assay readout was developed by addition of 5uL of CellTiter-Glo Reagent following the manufacturer's instructions. Luminiscence was measured using a ViewLux.; assay type: functional, cell-based; settings: Mus musculus, NIH3T3, 96 h
[13] = target: Sterol 14-alpha demethylase (Trypanosoma cruzi (strain CL Brener), UniProt Q7Z1V1); test: GSK_TCAKS: pIC50 CYP51 from Trypanosoma cruzi.; assay type: functional
Sterol 14-alpha demethylase, sequence (Q7Z1V1 whole entry): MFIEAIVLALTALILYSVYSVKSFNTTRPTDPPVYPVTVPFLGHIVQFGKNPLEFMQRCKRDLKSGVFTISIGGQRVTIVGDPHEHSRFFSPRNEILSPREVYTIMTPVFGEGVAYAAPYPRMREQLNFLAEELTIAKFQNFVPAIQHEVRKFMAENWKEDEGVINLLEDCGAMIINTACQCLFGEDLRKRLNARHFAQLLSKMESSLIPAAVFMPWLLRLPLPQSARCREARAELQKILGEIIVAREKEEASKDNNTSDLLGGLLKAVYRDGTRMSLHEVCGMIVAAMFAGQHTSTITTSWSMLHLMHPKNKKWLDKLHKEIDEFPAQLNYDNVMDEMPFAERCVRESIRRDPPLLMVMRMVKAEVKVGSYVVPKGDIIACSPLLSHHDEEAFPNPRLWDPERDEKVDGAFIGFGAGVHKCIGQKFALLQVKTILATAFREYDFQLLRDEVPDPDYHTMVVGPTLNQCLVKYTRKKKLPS

| Structure (SMILES) | IC50 [1] [µM] | IC50 [2] [µM] | IC50 [3] [µM] | IC50 [4] [µM] | IC50 [5] [µM] | IC50 [6] [µM] | IC50 [7] [µM] | IC50 [8] [µM] | IC50 [9] [µM] | IC50 [10] [µM] | IC50 at 48 h [11] [µM] | IC50 [12] [µM] | IC50 [13] [µM] |
| --- | --- | --- | --- | --- | --- | --- | --- | --- | --- | --- | --- | --- | --- |
| COc1ccc2nccc([C@H](O)CN3CC[C@H](NC(=O)c4ccc(Br)cc4)[C@@H](O)C3)c2n1 | 0.251 | 1.58 | 0.158 | 2 | 3.16 | > 50.1 | > 50.1 | > 50.1 | 0.2 | 0.501 | > 100 | > 50.1 | 6.31 |
| COc1ccccc1C=CCN1C[C@H]2CCC[C@@H](C1)C2(O)c1cccnc1 (stereo not given in full) | 0.0501 | 0.0398 | 0.0398 | > 50.1 | > 50.1 | > 50.1 | 31.6 | 39.8 | > 39.8 | > 39.8 | > 100 | 31.6 | 0.126 |
| O=C(CSc1ccc(-c2ccccn2)nn1)Nc1ccc(Cl)cc1 | 2.51 | 2.51 | 2 | > 50.1 | > 50.1 | > 50.1 | > 50.1 | > 50.1 | 10 | > 39.8 | > 100 | 31.6 | > 100 |
| Cc1ccc2c(c1)-c1onc(C(=O)N3CCCCC3c3cccnc3)c1CO2 (stereo not given) | 0.1 | 0.126 | 0.126 | > 50.1 | 31.6 | > 50.1 | 39.8 | 39.8 | 39.8 | > 39.8 | 50.1 | 20 | 0.1 |
| CCCCn1nnnc1CSc1nc(C)cc(C)c1C#N | 0.316 | 0.2 | 0.1 | > 50.1 | 1.26 | 3.98 | 3.16 | > 50.1 | > 39.8 | > 39.8 | > 100 | > 50.1 | 50.1 |
| N#Cc1ccc(S(=O)(=O)N2CCN(Cc3cccc(-c4ccncc4)c3)CC2)cc1 | 0.398 | 0.251 | 0.2 | 25.1 | > 50.1 | > 50.1 | 1.26 | > 50.1 | > 39.8 | 20 | > 100 | 12.6 | 0.0794 |
| CN(Cc1ccc(C(N)=O)cc1)C(c1ccc(F)cc1)c1cccnc1 (stereo not given) | 0.158 | 0.251 | 0.2 | > 50.1 | > 50.1 | > 50.1 | > 50.1 | > 50.1 | > 39.8 | > 39.8 | > 100 | 31.6 | 0.1 |
| O=C(NCCc1cccnc1)c1csc(-c2ccccc2)n1 | 0.282 | 0.501 | 0.398 | > 50.1 | > 50.1 | > 50.1 | > 50.1 | > 50.1 | 25.1 | > 39.8 | > 100 | 50.1 | 0.0631 |
| COc1ccc2ncc(F)c(NC(=O)[C@]3(O)CC[C@@H](NCc4ccc5c(c4)OCCO5)CC3)c2n1 | 0.158 | 0.126 | 0.158 | 31.6 | 39.8 | 31.6 | 15.8 | 20 | 0.794 | 1.58 | 50.1 | 7.94 | 63.1 |
| Cc1sc(C)c(C(F)(F)F)c1CNCCCNc1cc(=O)c2ccccc2[nH]1 | 0.794 | 1 | 0.501 | > 50.1 | > 50.1 | 50.1 | 25.1 | 31.6 | 0.01 | 0.0126 | 50.1 | 10 | 20 |
